Assay results taken from publication PMC4370687, “Functional Characterization of the 1,5-Benzodiazepine Clobazam and Its Major Active Metabolite N-Desmethylclobazam at Human GABAA Receptors Expressed in Xenopus laevis Oocytes” (PLoS ONE, 2015).
pEC50: −log10 of the molar value. Marks after values point to notes of the source that are not given here.

How the values were obtained:
human α2β2γ2S GABAAR = molecular target: T1, human α2β2γ2S GABAAR (Homo sapiens, UniProt P18507+P47869+P47870); assay: Potentiation of GABA EC20-evoked currents, TEVC in Xenopus oocytes; assay type: cell-based; details: for Imax ± S.E.M.: % of the response evoked by GABA EC20 (EC20 response = 100%)
T1 construct: expressed in transfected cells; host or cells: Xenopus laevis oocytes (cRNA injection, α:β2:γ2S 1:1:1; 1:1:5 in the zolpidem comparison)
Procedure: (§1) The cDNAs encoding the human GABAAR subunits were linearized with DraIII (α1, α2, α3, α5 and α6), SmaI (β2 and γ2S) or StuI (δ) and used as templates for in vitro cRNA synthesis using the T7 mMESSAGE mMACHINE High Yield Capped RNA Transcription Kit (Life Technologies Corporation, Carlsbad, CA, USA). Except where otherwise indicated, Xenopus oocytes were injected with 36.8 nL cRNA solution encoding for α1β2γ2S, α2β2γ2S, α3β2γ2S and α5β2γ2S GABAARs in a 1:1:1 α:β2:γ2S ratio (2.7 ng/μL of each subunit), with 46 nL cRNA solution encoding for the α6β2δ GABAAR in a 10:1:10 α6:β2:δ ratio (1:0.1:1 μg/μL), with 18 nL cRNA solution encoding for the α1β2 GABAAR in a 1:1 α1:β2 ratio (0.6:0.6 μg/μL), or with 46 nL cRNA encoding for α6β2 (α6:β2 ratio: 1:0.1 μg/μL). Following injection, the oocytes were incubated at 18°C in modified Barth’s solution [88 mM NaCl, 1 mM KCl, 15 mM HEPES (pH 7.5), 2.4 mM NaHCO3, 0.41 mM CaCl2, 0.82 mM MgSO4, 0.3 mM Ca(NO3)2, 100 U/mL penicillin and 100 μg/mL streptomycin]. Electrophysiological recordings were performed 3 to 6 days after injection.
(§2) Electrophysiological recordings were performed using the TEVC technique on Xenopus oocytes expressing various GABAAR combinations using a protocol adapted from previous studies. […] Cells were impaled with agar-plugged 0.5–1 MΩ electrodes containing 3 M KCl and voltage clamped at −70 mV by a Gene Clamp 500B amplifier (Axon Instruments, Union City, CA, USA) and recorded with pClamp 10 (Windows version, Molecular Devices, LLC, Sunnyvale, CA, USA). The oocytes were continuously perfused with Ringer buffer, and the test compounds were applied in the perfusate. Experiments were performed at room temperature and each data point represents the mean ± S.E.M. value of recordings performed on at least two oocytes from at least two different batches of oocytes. The recorded baseline-to-peak current amplitudes were analyzed using Clampfit 10.1 (Axon Instruments, Union City, CA, USA). […] The presence of δ in cell surface-expressed receptors in α6β2δ-injected oocytes was confirmed on a routinely basis using the δ-GABAAR selective PAM DS2 (1 μM). Furthermore, taking advantage of the differential sensitivity of αβ and αβδ receptors to Zn^2+ as antagonist, 1 μM ZnCl2 was used to verify that a homogenous population of ternary α6β2δ receptor complexes was expressed in these oocytes.
(§3) Two to five minutes of wash time between each application were permitted to overcome receptor desensitization. […] Concentration-response curves for the benzodiazepines were fitted using Equation 1.
To address this aspect, we compared the maximum responses mediated by saturating concentrations (3 μM) of clobazam, N-desmethylclobazam, and clonazepam at the GABAARs with the maximal responses mediated by a saturating concentration of diazepam, a 1,4-benzodiazepine often referred to as a “full benzodiazepine agonist”. […] We also compared the maximum degree of potentiation mediated by clobazam at the α2β2γ2S GABAAR with the maximal responses induced by a saturating concentration of zolpidem. […] In this experiment cRNA for α2β2γ2S was injected in a ratio of 1:1:5 (α2:β2:γ2S) to facilitate the expression of a homogenous population of γ2S-containing complexes.

rat α3β3γ2L GABAAR = details: patch clamp, cited from earlier work; for pEC50: 3 μM GABA (EC10–EC20), HEK-293T cells; for Imax: % of the responses evoked by GABA EC10–EC20, HEK-293T cells
human α6β2δ GABAAR = molecular target: T2, human α6β2δ GABAAR (Homo sapiens, UniProt P47870+Q16445); assay: Potentiation of GABA EC20-evoked currents, TEVC in Xenopus oocytes; assay type: cell-based; details: for Imax ± S.E.M.: % of the response evoked by GABA EC20 (EC20 response = 100%); for pEC50: co-applied with GABA EC20, N-desmethylclobazam value estimated, curve not saturated at 1 mM
T2 construct: expressed in transfected cells; host or cells: Xenopus laevis oocytes (cRNA injection, α6:β2:δ 10:1:10)
Procedure: as §1, §2, §3

human α3β2γ2S GABAAR = molecular target: T3, human α3β2γ2S GABAAR (Homo sapiens, UniProt P18507+P34903+P47870); assay: as above; assay type: cell-based; details: for Imax ± S.E.M.: % of the response evoked by GABA EC20 (EC20 response = 100%)
T3 construct: expressed in transfected cells; host or cells: Xenopus laevis oocytes (cRNA injection, 1:1:1)
Procedure: as §1, §2, §3

human α5β2γ2S GABAAR = molecular target: T4, human α5β2γ2S GABAAR (Homo sapiens, UniProt P18507+P31644+P47870); assay: as above; assay type: cell-based; details: for Imax ± S.E.M.: % of the response evoked by GABA EC20 (EC20 response = 100%)
T4 construct: expressed in transfected cells; host or cells: Xenopus laevis oocytes (cRNA injection, 1:1:1)
Procedure: as §1, §2, §3

human α1β2γ2S GABAAR [1] = molecular target: T5, human α1β2γ2S GABAAR (Homo sapiens, UniProt P14867+P18507+P47870); details: for Imax ± S.E.M.: % of the response evoked by GABA EC20 (EC20 response = 100%)
Procedure: (§5) Electrophysiological recordings were performed using the TEVC technique on Xenopus oocytes expressing various GABAAR combinations using a protocol adapted from previous studies [44, 45]. […] Cells were impaled with agar-plugged 0.5–1 MΩ electrodes containing 3 M KCl and voltage clamped at −70 mV by a Gene Clamp 500B amplifier (Axon Instruments, Union City, CA, USA) and recorded with pClamp 10 (Windows version, Molecular Devices, LLC, Sunnyvale, CA, USA). The oocytes were continuously perfused with Ringer buffer, and the test compounds were applied in the perfusate. Experiments were performed at room temperature and each data point represents the mean ± S.E.M. value of recordings performed on at least two oocytes from at least two different batches of oocytes. The recorded baseline-to-peak current amplitudes were analyzed using Clampfit 10.1 (Axon Instruments, Union City, CA, USA).

human α1β2γ2S GABAAR [2] = molecular target: T5, human α1β2γ2S GABAAR; assay: cell-based
Procedure: as §5

human α1β2 GABAAR = molecular target: T6, human α1β2 GABAAR (Homo sapiens, UniProt P14867+P47870); assay: Zinc-mediated inhibition of GABA EC80-evoked currents, TEVC in Xenopus oocytes; assay type: cell-based; details: 100 μM Zn2+, 10 μM GABA (EC80), mean ± S.E.M.
T6 construct: expressed in transfected cells; host or cells: Xenopus laevis oocytes (cRNA injection, α1:β2 1:1)
T6 sequence (P14867 28-456): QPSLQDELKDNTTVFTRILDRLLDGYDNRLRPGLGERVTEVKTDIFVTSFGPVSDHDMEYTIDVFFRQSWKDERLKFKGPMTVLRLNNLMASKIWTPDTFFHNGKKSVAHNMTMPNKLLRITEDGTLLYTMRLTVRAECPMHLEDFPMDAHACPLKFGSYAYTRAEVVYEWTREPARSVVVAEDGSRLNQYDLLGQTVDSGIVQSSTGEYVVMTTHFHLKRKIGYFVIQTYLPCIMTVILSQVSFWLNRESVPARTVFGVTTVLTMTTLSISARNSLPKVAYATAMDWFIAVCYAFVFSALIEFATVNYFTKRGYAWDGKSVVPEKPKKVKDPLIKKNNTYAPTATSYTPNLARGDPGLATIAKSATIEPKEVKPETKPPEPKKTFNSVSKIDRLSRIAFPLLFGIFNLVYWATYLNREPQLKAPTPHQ
T6 sequence (P47870 26-474 isoform P47870-1 limits assumed): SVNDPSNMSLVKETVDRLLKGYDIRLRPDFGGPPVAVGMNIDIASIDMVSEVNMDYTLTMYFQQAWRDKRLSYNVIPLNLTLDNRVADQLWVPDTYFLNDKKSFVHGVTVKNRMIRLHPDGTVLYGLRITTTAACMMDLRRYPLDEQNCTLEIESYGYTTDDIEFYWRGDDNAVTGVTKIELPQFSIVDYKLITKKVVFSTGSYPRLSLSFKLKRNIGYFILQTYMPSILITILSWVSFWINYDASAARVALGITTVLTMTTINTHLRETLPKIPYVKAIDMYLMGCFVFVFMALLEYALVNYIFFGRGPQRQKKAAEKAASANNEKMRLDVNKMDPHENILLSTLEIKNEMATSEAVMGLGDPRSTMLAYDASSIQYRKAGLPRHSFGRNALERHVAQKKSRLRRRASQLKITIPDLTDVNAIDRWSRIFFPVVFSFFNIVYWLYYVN
Procedure: as §1, with “Following injection, the oocytes were incubated at 18°C in modified Barth’s solution [88 mM NaCl, 1 mM KCl, 15 mM HEPES (pH 7.5), 2.4 mM NaHCO3, 0.41 mM CaCl2, 0.82 mM MgSO4, 0.3 mM Ca(NO3)2, 100 U/mL penicillin and 100 μg/mL streptomycin]. Electrophysiological recordings were performed 3 to 6 days after injection.” left out
(§4) Electrophysiological recordings were performed using the TEVC technique on Xenopus oocytes expressing various GABAAR combinations using a protocol adapted from previous studies. […] Cells were impaled with agar-plugged 0.5–1 MΩ electrodes containing 3 M KCl and voltage clamped at −70 mV by a Gene Clamp 500B amplifier (Axon Instruments, Union City, CA, USA) and recorded with pClamp 10 (Windows version, Molecular Devices, LLC, Sunnyvale, CA, USA). […] The recorded baseline-to-peak current amplitudes were analyzed using Clampfit 10.1 (Axon Instruments, Union City, CA, USA). […]

human α1β2γ2S GABAAR [3] = molecular target: T5, human α1β2γ2S GABAAR; assay: as above; assay type: cell-based; parameters: expressed in transfected cells; host or cells: Xenopus laevis oocytes (cRNA injection, α:β2:γ2S 1:1:1); details: 100 μM Zn2+, 100 μM GABA (EC80), mean ± S.E.M.
Procedure: as §1, with “Following injection, the oocytes were incubated at 18°C in modified Barth’s solution [88 mM NaCl, 1 mM KCl, 15 mM HEPES (pH 7.5), 2.4 mM NaHCO3, 0.41 mM CaCl2, 0.82 mM MgSO4, 0.3 mM Ca(NO3)2, 100 U/mL penicillin and 100 μg/mL streptomycin]. Electrophysiological recordings were performed 3 to 6 days after injection.” left out
as §4

[4] = humans; cited from earlier work
human α6β2 GABAAR = molecular target: T7, human α6β2 GABAAR (Homo sapiens, UniProt P47870+Q16445); assay: Potentiation of GABA EC20-evoked currents, TEVC in Xenopus oocytes; assay type: cell-based
T7 construct: expressed in transfected cells; host or cells: Xenopus laevis oocytes (cRNA injection)
Procedure: as §1, §2, §3

[5] = test system: human α1,2,3,5β2γ2S GABAARs; details: cited from earlier work
α1β2γ1 receptors = details: Xenopus oocytes; cited from earlier work
[6] = 1 mM compound, in % of the GABA EC20 response, curve not saturated

T4 sequence (P31644 32-462, one chain of several): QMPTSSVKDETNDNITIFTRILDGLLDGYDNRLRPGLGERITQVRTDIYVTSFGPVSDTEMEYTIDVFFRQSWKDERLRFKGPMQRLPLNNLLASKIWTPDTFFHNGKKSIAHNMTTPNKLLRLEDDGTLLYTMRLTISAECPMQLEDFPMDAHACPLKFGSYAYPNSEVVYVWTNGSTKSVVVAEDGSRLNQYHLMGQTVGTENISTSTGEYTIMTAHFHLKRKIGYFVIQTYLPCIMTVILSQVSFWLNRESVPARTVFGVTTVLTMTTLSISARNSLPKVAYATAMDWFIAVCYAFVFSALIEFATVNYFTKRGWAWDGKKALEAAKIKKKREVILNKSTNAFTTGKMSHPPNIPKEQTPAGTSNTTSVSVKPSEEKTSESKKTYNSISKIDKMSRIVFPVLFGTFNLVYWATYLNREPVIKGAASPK
T4 sequence (P18507 40-467 isoform P18507-1 limits assumed, one chain of several): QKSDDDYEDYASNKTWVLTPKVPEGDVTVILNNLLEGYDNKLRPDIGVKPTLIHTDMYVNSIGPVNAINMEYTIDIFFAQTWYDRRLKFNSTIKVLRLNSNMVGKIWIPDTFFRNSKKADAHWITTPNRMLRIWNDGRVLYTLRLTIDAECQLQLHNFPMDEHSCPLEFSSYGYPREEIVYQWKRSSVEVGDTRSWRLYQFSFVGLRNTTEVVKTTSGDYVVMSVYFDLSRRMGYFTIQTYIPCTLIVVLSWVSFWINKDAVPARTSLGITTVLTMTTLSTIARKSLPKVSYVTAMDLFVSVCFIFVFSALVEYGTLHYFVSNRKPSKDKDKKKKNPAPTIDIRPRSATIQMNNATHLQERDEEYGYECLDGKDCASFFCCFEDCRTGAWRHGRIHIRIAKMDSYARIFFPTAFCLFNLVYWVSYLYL
T5 sequence (P18507 40-467 isoform P18507-1 limits assumed, one chain of several): as above
T2 sequence (Q16445 20-453, one chain of several): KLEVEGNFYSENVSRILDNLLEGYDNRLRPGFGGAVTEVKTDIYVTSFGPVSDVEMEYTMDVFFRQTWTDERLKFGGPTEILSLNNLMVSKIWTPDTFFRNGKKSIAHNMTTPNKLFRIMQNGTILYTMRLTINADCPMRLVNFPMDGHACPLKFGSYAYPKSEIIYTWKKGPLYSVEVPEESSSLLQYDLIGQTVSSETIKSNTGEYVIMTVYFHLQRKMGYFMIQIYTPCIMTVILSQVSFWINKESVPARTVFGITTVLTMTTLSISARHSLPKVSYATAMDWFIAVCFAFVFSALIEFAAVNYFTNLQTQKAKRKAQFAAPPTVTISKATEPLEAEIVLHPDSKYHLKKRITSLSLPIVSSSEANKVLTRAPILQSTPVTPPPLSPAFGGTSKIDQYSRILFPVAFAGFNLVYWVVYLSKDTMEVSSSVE
T2 sequence (O14764 25-452 partner, one chain of several): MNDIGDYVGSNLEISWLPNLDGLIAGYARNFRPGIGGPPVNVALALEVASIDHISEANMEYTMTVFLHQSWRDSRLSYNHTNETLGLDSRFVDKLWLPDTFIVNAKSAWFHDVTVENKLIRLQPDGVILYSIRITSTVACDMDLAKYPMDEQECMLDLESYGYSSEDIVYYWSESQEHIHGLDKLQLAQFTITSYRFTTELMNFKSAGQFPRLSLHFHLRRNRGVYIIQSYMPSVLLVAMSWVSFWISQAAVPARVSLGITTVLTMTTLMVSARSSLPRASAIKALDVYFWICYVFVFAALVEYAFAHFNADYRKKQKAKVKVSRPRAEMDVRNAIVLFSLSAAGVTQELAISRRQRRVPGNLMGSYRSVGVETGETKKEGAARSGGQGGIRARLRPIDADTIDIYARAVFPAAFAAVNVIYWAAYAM
T1 sequence (P47869 29-451, one chain of several): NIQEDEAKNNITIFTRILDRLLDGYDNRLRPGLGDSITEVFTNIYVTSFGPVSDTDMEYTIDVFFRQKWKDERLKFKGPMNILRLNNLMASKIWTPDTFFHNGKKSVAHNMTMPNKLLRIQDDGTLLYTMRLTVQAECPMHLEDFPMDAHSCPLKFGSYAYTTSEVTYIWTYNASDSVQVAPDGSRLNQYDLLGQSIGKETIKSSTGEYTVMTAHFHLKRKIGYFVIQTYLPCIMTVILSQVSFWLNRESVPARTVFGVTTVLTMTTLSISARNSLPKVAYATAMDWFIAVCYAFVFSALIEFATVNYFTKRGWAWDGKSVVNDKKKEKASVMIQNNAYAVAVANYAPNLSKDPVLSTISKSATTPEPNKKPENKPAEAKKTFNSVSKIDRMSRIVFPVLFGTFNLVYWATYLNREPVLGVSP
T1 sequence (P18507 40-467 isoform P18507-1 limits assumed, one chain of several): as the sequence (P18507 40-467 isoform P18507-1 limits assumed, one chain of several) above
T3 sequence (P34903 29-492, one chain of several): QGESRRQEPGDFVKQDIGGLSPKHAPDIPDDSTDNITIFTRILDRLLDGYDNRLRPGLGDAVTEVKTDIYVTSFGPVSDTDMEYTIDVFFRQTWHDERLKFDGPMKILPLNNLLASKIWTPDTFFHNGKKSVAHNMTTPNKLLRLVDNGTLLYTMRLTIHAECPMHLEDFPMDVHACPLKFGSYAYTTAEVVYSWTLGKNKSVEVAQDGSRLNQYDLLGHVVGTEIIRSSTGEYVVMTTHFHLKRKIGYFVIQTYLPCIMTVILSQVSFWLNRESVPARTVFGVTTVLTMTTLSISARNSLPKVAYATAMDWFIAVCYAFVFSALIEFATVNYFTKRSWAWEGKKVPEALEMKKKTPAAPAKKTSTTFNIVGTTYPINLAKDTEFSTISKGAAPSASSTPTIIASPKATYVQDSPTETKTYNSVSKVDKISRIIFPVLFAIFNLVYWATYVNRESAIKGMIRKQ
T3 sequence (P18507 40-467 isoform P18507-1 limits assumed, one chain of several): as the sequence (P18507 40-467 isoform P18507-1 limits assumed, one chain of several) above
T7 sequence (Q16445 20-453, one chain of several): as the sequence (Q16445 20-453, one chain of several) above

Structure (SMILES) | pEC50 (human α2β2γ2S GABAAR) | Imax ± S.E.M. (human α2β2γ2S GABAAR) [%] | pEC50 (rat α3β3γ2L GABAAR) | Imax (rat α3β3γ2L GABAAR) [%] | Imax ± S.E.M. (human α6β2δ GABAAR) [%] | pEC50 (human α6β2δ GABAAR; EC50, PAM) | pEC50 (human α3β2γ2S GABAAR) | Imax ± S.E.M. (human α3β2γ2S GABAAR) | pEC50 (human α5β2γ2S GABAAR) | Imax ± S.E.M. (human α5β2γ2S GABAAR) | Imax ± S.E.M. (human α1β2γ2S GABAAR [1]) [%] | pEC50 (human α1β2γ2S GABAAR [2]) | plasma half-life [4] [h] | fold higher binding affinity at α2β2γ2S compared to α1β2γ2S [5] [fold] | further results
O=C1CN=C(c2ccccc2Cl)c2cc([N+](=O)[O-])ccc2N1 [clonazepam] | 8.13 | 253 ± 17 | 7.05 | 263 | 283 ± 38 | 4.54 | 7.80 | 316 (334 and 297) ^b % | 7.68 | 255 ± 25% | 209 ± 14 | 7.81 |  |  | fold more potent than N-desmethylclobazam as a PAM (human α2β2γ2S GABAAR; EC50 ratio): 19 fold; fold more potent than clobazam as a PAM (human α2β2γ2S GABAAR; EC50 ratio): 19 fold; pEC50 (human α6β2δ GABAAR; pEC50 ± S.E.M., PAM): 4.53; fold more potent than N-desmethylclobazam as a PAM (human α3β2γ2S GABAAR; EC50 ratio): 18 fold; fold more potent than clobazam as a PAM (human α3β2γ2S GABAAR; EC50 ratio): 15 fold; fold more potent than N-desmethylclobazam as a PAM (human α5β2γ2S GABAAR; EC50 ratio): 5 fold; fold more potent than clobazam as a PAM (human α5β2γ2S GABAAR; EC50 ratio): 8 fold; fold more potent than N-desmethylclobazam as a PAM (human α1β2γ2S GABAAR [1]; EC50 ratio): 10 fold; fold more potent than clobazam as a PAM (human α1β2γ2S GABAAR [1]; EC50 ratio): 9 fold
[Cl-].[Cl-].[Zn+2] [Zn^2+, ZnCl2] |  |  |  |  |  |  |  |  |  |  |  |  |  |  | degree of inhibition of GABA EC80-evoked currents (human α1β2 GABAAR): 77 ± 6.3%; degree of inhibition of GABA EC80-evoked currents (human α1β2γ2S GABAAR [3]): 4.7 ± 4.6%
CN1C(=O)CN=C(c2ccccc2)c2cc(Cl)ccc21 [diazepam] |  |  |  | 508 |  |  |  |  |  |  |  |  |  |  | 
O=C1CC(=O)N(c2ccccc2)c2cc(Cl)ccc2N1 [N-desmethylclobazam] | 6.86 | 270 ± 20 | 6.26 | 270 |  | ~3.52 | 6.55 | 270 ± 27% | 7.01 | 233 (248 and 217) ^b % | 203 ± 8.5 | 6.82 | 79 | 4.3 | pEC50 (human α6β2 GABAAR): ~3.52; current evoked by 1 mM (given instead of Imax) (human α6β2 GABAAR; [6]): 2350 ± 200 ^a %; fold potentiation of the GABA EC20-evoked response (human α6β2δ GABAAR; 1 mM compound, curve not saturated): ~24 fold; current evoked by 1 mM (given instead of Imax) (human α6β2δ GABAAR; [6]): 2420 ± 210 ^a %
Cc1ccc(-c2nc3ccc(C)cn3c2CC(=O)N(C)C)cc1 [zolpidem] |  |  |  |  |  |  |  |  |  |  |  |  |  |  | fold potentiation of GABA EC20-evoked currents (human α2β2γ2S GABAAR; saturating concentration (3 μM)): 2.7 fold
CN1C(=O)CC(=O)N(c2ccccc2)c2cc(Cl)ccc21 [clobazam] | 6.86 | 261 ± 6.7 | 6.31 | 487 | 528 ± 46 | 4.26 | 6.62 | 269 ± 0.8% | 6.76 | 216 ± 7.0% | 256 ± 12 | 6.88 | 36 | 2.5 | potentiation of GABA EC5-EC10-evoked responses (α1β2γ1 receptors): negligible potentiation
